# Several values for one entry are separate records, joined by “and”; a condition that tells them apart may be missing. Equal entries are not always repeated. Where two headings read alike, the source gives them in different places. Positions of bridges follow the written chain, without caps; N, C: chain ends. Residues, ends and D or L forms follow the SMILES beside them.
# Legend:
# hNaV1.1 = assay: Persistent current, HEK293-hNaV1.1/β1; type: cell-based, human; conditions: ExTxA 1 µM; individual cells
# hNaV1.4 = assay: Persistent current, HEK293-hNaV1.4/β1; type: cell-based, human; conditions: ExTxA 1 µM
# hNaV1.5 = assay: Persistent current, HEK293-hNaV1.5/β1; type: cell-based, human; conditions: ExTxA 1 µM
# [1] = tested on: NaV currents in SH-SY5Y cells; assay: Persistent current, SH-SY5Y cells; type: cell-based, human; conditions: ExTxA 1 µM
# NaV1.7/TMEM233 = NaV1.7/TMEM233 (Homo sapiens, UniProt B4DJY2+Q15858); type: cell-based
# Method: HEK293-NaV1.7 cells were transfected with TMEM233, CRELD1, LMAN2L, MMGT1, RNF121 and STT3B and co-transfected with five plasmids coding for the Glycosylphosphatidylinositol (GPI) complex (GPAA1, PIGK, PIGS, PIGU, PIGT) using Lipofectamine 2000. After 24 h, transfected cells were harvested and plated at a density of 10,000–15,000 cells per well on black-walled 384-well imaging plates. Plated cells were cultured for a further 24 h at 37 °C and 5% CO2. FLIPR (Fluorescent Imaging Plate Reader) Red membrane potential assay dye (Molecular Devices, California, USA) was diluted in physiological salt solution according to the manufacturer’s instructions (PSS, in mM: NaCl 140, glucose 11.5, HEPES 10, KCl 5.9, MgCl2 1.4, NaH2PO4 1.2, NaHCO3 5, CaCl2 1.8, pH 7.4). Growth medium was removed from the plate and replaced with 20 µL of FLIPR Red membrane potential assay dye per well and incubated in the dark at 37 °C for 60 min. […] Fluorescence responses to ExTxA were computed as the maximum change in fluorescence over baseline (ΔF/F0) using ScreenWorks (Molecular Devices, Version 5.1.2.94).
# hNaV1.7/TMEM233 [2] = assay: Persistent current, CHO hNaV1.7/TMEM233; type: cell-based, human; conditions: ExTxA 1 µM; hNaV1.7/TMEM233; mean ± SEM, n = 16
# hNaV1.7/TMEM233 [3] = assay: Persistent current, Xenopus oocytes hNaV1.7/TMEM233; type: cell-based, human
# Method: Human NaV1.7 and TMEM233 genes cloned into pcDNA3.1 plasmid were linearized with NotI restriction enzyme and used as template for cRNA synthesis using T7 polymerase (mMessage mMachine Kit; Life Technologies). Stage V/VI oocytes were injected with 5–20 ng total RNA, then incubated at 17 °C for 1–3 days in 50% Leibovitz’s L-15 medium (Gibco), supplemented with 25 µg/mL gentamicin, 25 µg/mL streptomycin, and 2.5% fetal horse serum. Two-electrode voltage clamp (Axoclamp 900 A amplifier; Axon Instruments) were performed at room temperature in ND96 solution (in mM: 96 NaCl, 2 KCl, 1 MgCl2, 1.8 CaCl2, 5 HEPES; pH 7.4 with NaOH) with a ∼40 μL recording chamber. In experiments where ExTxA was added, solutions were supplemented with 0.05% fatty-acid free bovine serum albumin. Borosilicate glass microelectrodes had resistances of 0.2–0.8 MΩ when backfilled with 3 M KCl. Data were digitized at 20 kHz and filtered at 2 kHz using pCLAMP 11 software (Digidata 1550B; Axon Instruments).
# ExTxA activity was assayed at 1 µM, analyzing the current from a 50 ms step to −10 mV every 10 s, from a holding volage of −80 mV. For all other voltage protocols, oocytes were held at −90 mV. Activation curves were obtained by measuring peak currents during steps from −100 mV to +60 mV in +10 mV increments applied every 10 s, with G/Gmax plot between −80 mV and +10 mV. Steady-state inactivation curves plot the peak current at a test pulse of −10 mV, after a 200 ms pre-pulse from −100 mV to +40 mV in +10 mV increments applied every 10 s. Slow inactivation curves plot the peak current at a test pulse of −10 mV, after a 10 s pre-pulse from −110 mV to −10 mV in +10 mV increments applied every 20 s. To determine recovery from inactivation, oocytes were first stepped to −10 mV, then rested at −90 mV for a variable time interval indicated in the graph, then a second −10 mV depolarization applied to determine the fraction of channls recovered. This protocol was applied every 13 s (time between each initial −10 mV step).
# Cos-1 cells = assay: Currents in untransfected Cos-1 cells; type: cell-based; conditions: ExTxA 1 µM, mean ± SEM, n = 6
# Method: Whole-cell patch clamp experiments involving HEK293, COS-1, CHO, ND7/23, F11, SH-SY5Y and TE-671 cells were performed on a QPatch II automated electrophysiology platform (Sophion Bioscience, Ballerup, Denmark) as previously described. Cells at approximately 70–80% confluency were harvested from T75 flasks using TrypLE Express at 37 °C for 2–5 min and resuspended in DMEM with 25 mM HEPES (Sigma-Aldrich, NSW, Australia), 100 U/mL Penicillin-Streptomycin (Gibco) and 40 µg/mL trypsin inhibitor from Glycine max (soybean) (Sigma Aldrich) prior to recovery on a QStirrer (Sophion) for 30 min. 16-channel patch plates with a patch hole diameter of 1 μm and resistance of 2 ± 0.02 MΩ were used. Cell positioning and sealing parameters were as follows: positioning pressure −60 mbar, minimum seal resistance 0.1 GΩ, holding potential −100 mV, holding pressure −20 mbar. Whole-cell currents were filtered at 5 kHz and acquired at 25 kHz. Series resistance compensation was used and set to 70%.
# wild-type C57BL/6 mice = conditions: cited from earlier work
# [4] = best-fit value, log(agonist) vs. response -- variable slope (four parameters)
compound,measurement,setting,value
"CC[C@H](C)[C@@H]1NC(=O)[C@H](CCCNC(=N)N)NC(=O)[C@H](Cc2ccccc2)NC(=O)[C@H](CC(C)C)NC(=O)[C@H](CO)NC(=O)[C@@H]2CSSC[C@@H]3NC(=O)[C@H]([C@@H](C)O)NC(=O)[C@H](CSSC[C@H](NC(=O)[C@H](CCCNC(=N)N)NC(=O)[C@@H]4CCCN4C(=O)[C@@H](N)CC(C)C)C(=O)N[C@@H](CC(=O)O)C(=O)N[C@@H](CO)C(=O)N4CCC[C@H]4C(=O)N[C@@H](Cc4ccccc4)C(=O)N2)NC(=O)[C@H](CCCCN)NC(=O)[C@H](CC(=O)O)NC(=O)CNC(=O)[C@H](CSSC[C@@H](C(=O)N[C@H](C(=O)N2CCC[C@H]2C(=O)N[C@@H](CC(=O)O)C(=O)N[C@H](C(=O)O)C(C)C)C(C)C)NC(=O)[C@H](CC(C)C)NC(=O)CNC(=O)[C@H](Cc2ccccc2)NC(=O)[C@H]([C@@H](C)CC)NC(=O)[C@@H]2CCCN2C(=O)[C@H](CC(C)C)NC(=O)[C@@H]2CCCN2C(=O)[C@H](C(C)C)NC3=O)NC(=O)[C@H](CC(C)C)NC(=O)CNC1=O [ExTxA, excelsatoxin A] (H-LPRCDSPFCSLFRIGLCGDKCTCVPLPIFGLCVPDV-OH; disulfide 4-21, 9-23, 17-32)",persistent current (I40 ms/Ipeak),hNaV1.1,0.000881 and 0.001374 and 0.002237 and -0.03938 and -0.00046 and -0.00216 and -0.00201 and 0.01125 and 0.00618 and -0.00021 and -0.01358
same,persistent current (I40 ms/Ipeak),hNaV1.4; individual cells,-0.00323 and 0.000561 and 0.001128 and 1.82e-5 and 3.19e-5 and 0.001575 and 0.001393 and -0.00031 and -0.00116
same,Δ persistent current (I40 ms/Ipeak; buffer cf. ExTxA),hNaV1.4; mean,7.89E-07 ± 0.0005 and 7.889e-7
same,persistent current (I40 ms/Ipeak),hNaV1.5; individual cells,0.001512 and 0.003695 and 0.000623 and -0.00019 and 0.001997 and -0.00321 and -0.00096 and -7.2e-5 and 0.000901 and 0.000208 and 0.000397
same,Δ persistent current (I40 ms/Ipeak; buffer cf. ExTxA),hNaV1.5; mean,0.0004 ± 0.0005 and 0.0003926
same,persistent current (I40 ms/Ipeak),[1]; individual cells,-0.02037 and -0.04756 and 0.0447 and 0.01578 and 0.03746
same,Δ persistent current (I40 ms/Ipeak; buffer cf. ExTxA),[1]; mean,0.006 ± 0.0175 and 0.006003
same,DF/F,NaV1.7/TMEM233,0.3009 and 0.2755
same,ΔF/F in NaV1.7 HEK293,"NaV1.7/TMEM233; ExTxA 1 µM, TMEM233, mean, n = 3",0.29 ± 0.0075 and 0.2867
same,DF/F,"NaV1.7/TMEM233; ExTxA 1 µM, TMEM233, replicate 3",0.2837
same,Bottom,NaV1.7/TMEM233; [4],0.07296
same,HillSlope,NaV1.7/TMEM233; [4],1.156
same,LogEC50,NaV1.7/TMEM233; [4],-8.146
same,Span,NaV1.7/TMEM233; [4],0.6962
same,Top,NaV1.7/TMEM233; [4],0.7692
same,ExTxA-sensitivity of NaV1.7-expressing HEK293 cells,NaV1.7/TMEM233; of all 10 gene hits,only expression of TMEM233 imparted ExTxA-sensitivity to NaV1.7-expressing HEK293 cells
same,CHO cells persistent current (I40 ms),hNaV1.7/TMEM233 [2],-2.010 ± 0.277 nA
same,Xenopus oocyte persistent current (I40 ms/Ipeak),hNaV1.7/TMEM233 [3],0.727 ± 0.020
same,"Nav:TMEM, 1:1 molar, mean (persistent current)","hNaV1.7/TMEM233 [3]; Supplementary Fig 1f, 1 uM, toxin not named, mean of n = 6, Control mean 0.0806, n = 6",0.727
same,"Nav:TMEM, 1:1 molar, individual values (persistent current)","hNaV1.7/TMEM233 [3]; Supplementary Fig 1f, 1 uM, toxin not named, single replicates",0.6869 and 0.7919 and 0.702 and 0.7846 and 0.7038 and 0.6927
same,"Nav:TMEM, 1:1 molar, difference between means (1 uM - Control) ± SEM","hNaV1.7/TMEM233 [3]; Supplementary Fig 1f, unpaired t test P <0.0001, 95% CI 0.5949 to 0.6979",0.6464 ± 0.0231
same,ExTxA-induced persistent current,Cos-1 cells,-2.019 ± 5.908 pA
same,"toxicity to TE-671 cells, ExTxA alone",TE-671 cells; ExTxA 1 µM,did not cause visible toxicity
same,"toxicity to TE-671 cells, with veratridine and ouabain",TE-671 cells; ExTxA 1 µM + veratridine 5 µM + ouabain 20 nM,cell death
same,pain behavior after intraplantar administration in mice,wild-type C57BL/6 mice,elicits spontaneous pain behaviors and an axon reflex flare following intraplantar administration in mice

# Source: article PMC10147923, “Pain-causing stinging nettle toxins target TMEM233 to modulate NaV1.7 function” (Nature Communications, 2023)
